Entries after “also recorded” stand apart in the source; their conditions may differ. One block for each molecule: values may come before it.
Legend:
human MTHFD2 = biological target: T1, human MTHFD2 (Homo sapiens, UniProt P13995); assay: MTHFD2 in vitro assay (rate of NADH formation at 340 nm); format: biochemical; conditions: FIG. 3(c)
T1 sequence (P13995 36-350): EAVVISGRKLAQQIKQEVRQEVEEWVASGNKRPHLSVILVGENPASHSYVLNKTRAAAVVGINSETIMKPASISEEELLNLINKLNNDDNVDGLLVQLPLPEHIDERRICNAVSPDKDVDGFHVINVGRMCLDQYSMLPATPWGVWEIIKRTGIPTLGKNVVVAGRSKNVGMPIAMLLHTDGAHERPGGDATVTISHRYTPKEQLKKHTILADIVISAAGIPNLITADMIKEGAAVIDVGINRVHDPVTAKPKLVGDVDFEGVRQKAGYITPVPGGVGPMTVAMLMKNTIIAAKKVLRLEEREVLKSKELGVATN
Description: For the MTHFD2 in vitro assay (FIG. 3(c)), the rate of NADH formation was directly monitored at 340 nm.

human SHMT2 = biological target: T2, human SHMT2 (Homo sapiens, UniProt P34897); assay: SHMT2 in vitro coupled enzymatic assay (coupled with excess MTHFD2, NADH absorption at 340 nm); format: biochemical; conditions: for IC50: inhibition of initial reaction velocity
T2 sequence (P34897 30-504): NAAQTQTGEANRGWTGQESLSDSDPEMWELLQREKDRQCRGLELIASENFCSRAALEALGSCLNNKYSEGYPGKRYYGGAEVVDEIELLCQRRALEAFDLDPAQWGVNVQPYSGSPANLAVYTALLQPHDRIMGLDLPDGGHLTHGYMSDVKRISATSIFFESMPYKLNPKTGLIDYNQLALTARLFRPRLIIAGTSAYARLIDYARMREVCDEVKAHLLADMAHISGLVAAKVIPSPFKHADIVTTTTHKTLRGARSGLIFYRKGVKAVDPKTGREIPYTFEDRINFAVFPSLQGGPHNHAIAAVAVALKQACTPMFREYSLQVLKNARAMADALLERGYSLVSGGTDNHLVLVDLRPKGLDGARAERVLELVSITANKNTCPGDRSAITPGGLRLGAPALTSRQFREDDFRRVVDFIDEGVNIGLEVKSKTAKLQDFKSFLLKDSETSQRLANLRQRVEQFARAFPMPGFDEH

human SHMT1 = biological target: T3, human SHMT1 (Homo sapiens, UniProt P34896); assay: SHMT1 in vitro coupled enzymatic assay (coupled with excess MTHFD2, NADH absorption at 340 nm); format: biochemical; conditions: for IC50: inhibition of initial reaction velocity
T3 sequence (P34896 1-483): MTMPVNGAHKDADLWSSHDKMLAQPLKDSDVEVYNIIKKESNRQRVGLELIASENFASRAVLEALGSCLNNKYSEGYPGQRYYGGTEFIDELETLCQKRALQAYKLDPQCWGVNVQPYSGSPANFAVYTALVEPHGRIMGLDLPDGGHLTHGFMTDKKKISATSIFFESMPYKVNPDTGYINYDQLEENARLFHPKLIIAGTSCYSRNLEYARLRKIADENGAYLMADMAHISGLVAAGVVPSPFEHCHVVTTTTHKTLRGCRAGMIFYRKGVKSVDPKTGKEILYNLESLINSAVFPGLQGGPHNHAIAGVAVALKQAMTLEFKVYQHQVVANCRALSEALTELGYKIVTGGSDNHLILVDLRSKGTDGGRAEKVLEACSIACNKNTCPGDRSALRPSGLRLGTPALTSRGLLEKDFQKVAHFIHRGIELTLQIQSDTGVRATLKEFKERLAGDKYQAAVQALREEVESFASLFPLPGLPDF

[1] = tested on: human cells expressing SHMT2; assay: Measurement of AICAR, marker for one-carbon unit stress, in cells; format: cell-based; conditions: treatment for 24 hours, increasing concentrations, FIG. 2(b)
Description: HEK-293T cells were cultured in 6-well plates in Dulbecco's modified eagle media (DMEM) without pyruvate with 10% dialysed fetal bovine serum in 5% CO2 at 37° C. […] Growth was quenched and metabolites extracted by aspirating media, washing cells with cold PBS, and immediately adding MeOH/water (80:20 at −80° C.). Supernatants from two rounds of extraction were combined, dried under N2, resuspended in water, placed in a 4° C. autosampler, and analyzed by reverse-phase ion-paring chromatography negative-mode electrospray-ionization high-resolution MS on a stand-alone orbitrap.
Generation of AICAR provides an assay to evaluate one-carbon unit stress. Inhibition of SHMT2 in cells decreases serine metabolism and leads to one-carbon stress. […] Such cells show high constitutive levels of 5-aminoimidazole-4-carboxamide ribonucleotide (AICAR), a marker for one-carbon unit stress, when cultured in media (left bar in FIG. 2(a)). This can be rescued by exogenous treatment with sodium formate (right bar in FIG. 2(a)).
(*) indicates AICAR was below the limit of detection.

[2] = tested on: SHMT serine metabolic activity in SHMT2 expressing human cells; assay: Isotope labeling of serine metabolism in cells (labeled serine, LC-MS); format: cell-based; conditions: uniformly labeled serine, FIG. 2(c)
Description: Using 2,3,3-^2H3-serine (D3-serine) as a tracer, mitochondrial flux was measured by quantifying the labeling pattern of dTTP, a downstream product of dTMP. […] This assay was used to examine mitochondrial serine flux and the effect of compounds of the disclosure on mitochondrial serine flux, in either wildtype or mutant cells.
Uniformly labeled serine is metabolized into various isoptomers in WT cells by the forward and reverse enzymatic activity of SHMT.

HEK293T cells = assay: Cell growth assay (resazurin), wild-type HEK293T; format: cell-based, human; conditions: for inhibition of cell growth: varying concentrations
Description: HEK293T cells were cultured in 96-well plates in Dulbecco's modified eagle media (DMEM) without pyruvate with 10% dialysed fetal bovine serum (Invitrogen) in 5% CO2 at 37° C. 24 hours after plating, cells were treated with various concentrations of inhibitor. Growth was serially assessed using the resazurin (‘AlamarBlue’) assay.
(§1) The described cell lines used in Examples 9-11 were cultured in 96-well plates in Dulbecco's modified eagle media (DMEM) without pyruvate (CELLGRO) with 10% dialysed fetal bovine serum (Invitrogen) in 5% CO2 at 37° C. Approximately 2,500 cells were plated in each well in 90 uL of media. After 24 hours cells were treated with various concentrations of inhibitor (time=0 hours), with or without formate. Growth was assessed at multiple time points (time=0, 24, 48, 72 hours) through measurement of fluorescence at 595 nm (excitation at 535 nm) on a BioTek micro titer plate reader after incubation with resazurin (0.01 mg/mL for 1.5 hours). IC50 curves were generated from percent inhibition of growth at 72 hours.

[3] = tested on: SHMT2 knock-out HEK293 cells; assay: Cell growth assay (resazurin), SHMT2 knock-out 293T; format: cell-based, human; conditions: varying concentrations
Description: HEK293T cell lines mutant for SHMT1 and SHMT2 were created using the CRISPR-Cas9 system following standard published protocols. Single clones from successful transfections were grown up, genotyped and characterized.
(§2) Inhibitors of SHMT were evaluated in wildtype, SHMT2 knock-out, and MTHFD2 knock-out 293T cells (FIG. 6(a) and FIG. 6(b)).
as §1

[4] = tested on: MTHFD2 knock-out HEK293T cells; assay: Cell growth assay (resazurin), MTHFD2 knock-out 293T; format: cell-based, human; conditions: varying concentrations
Description: as §2, §1

[5] = tested on: HCT116 human colon carcinoma cells; assay: Cancer cell growth assay (resazurin), HCT116; format: cell-based; conditions: HCT116, varying concentrations, FIG. 7
Description: (§3) Inhibitors of SHMT were evaluated in various cancer cell lines. […] This cancer cell line comprises (harbors) a mutation in a component of the mitochondrial folate pathway. Specifically, one or more cells in this line comprise a mutation in the downstream mitochondrial folate enzyme, MTHFD1L.
as §1

[6] = tested on: 8988T pancreatic cancer cells; assay: Cancer cell growth assay (resazurin), 8988T; format: cell-based, human; conditions: 8988T (MTHFD1L mutation), varying concentrations, FIG. 7
Description: as §3, §1

Compound: Cc1n[nH]c2c1C(c1cc(Cl)cc(Cl)c1)(C1CCC1)C(C#N)=C(N)O2 (racemic) [HK-10]
IC50 (human SHMT2; Table A): 159 nM

Compound: Cc1n[nH]c2c1C(c1cc(C(F)(F)F)cc(C(F)(F)F)c1)(C(C)C)C(C#N)=C(N)O2 (racemic) [HK-16]
inhibition of human MTHFD2 in enzymatic assays (human MTHFD2): do not inhibit
AICAR accumulation [1]: AICAR accumulation in a dose-dependent manner
SHMT serine metabolic activity in cells [2]: inhibited in cells by HK-16 in a dose-dependent manner

Compound: Cc1n[nH]c2c1C(c1cc(C(F)(F)F)cc(C(F)(F)F)c1)(C(C)C)C(C#N)=C(N)O2 (single isomer, unassigned) [HK-16 (PK-1)]
inhibition of cell growth (HEK293T cells; FIG. 5, 6): not inhibited
inhibition of cell growth (HEK293T cells; FIG. 5, 6, listed as HK-16-P1): significantly less or no effect
inhibition of cell growth (HEK293T cells; FIG. 5, 6, listed as Peak 1): not appreciably inhibited; also recorded: little or no activity
inhibition of cell growth ([3]; FIG. 6, listed as HK-16-P1): significantly less or no effect
inhibition of cell growth ([3]; FIG. 6, listed as Peak 1): Some, although a lower degree of activity
inhibition of cell growth ([4]; FIG. 6, listed as HK-16-P1): significantly less or no effect
inhibition of cell growth ([4]; FIG. 6, listed as Peak 1): Some, although a lower degree of activity
inhibition of cancer cell growth ([5]; listed as HK-16-P1): does not inhibit cell growth

Compound: Cc1n[nH]c2c1C(c1cccc(Cl)c1)(C1CCC1)C(C#N)=C(N)O2 (stereo not shown) [HK-3]
IC50 (human SHMT2; Table A): 1190 nM
IC50 (human SHMT2; table of Example 6): 1190 nM

Compound: COc1cc(Cl)cc(C2(C3CCC3)C(C#N)=C(N)Oc3[nH]nc(C)c32)c1 (stereo not shown) [HK-9]
IC50 (human SHMT2; Table A): 3460 nM
IC50 (human SHMT2; table of Example 6): 3460 nM

Compound: Cc1n[nH]c2c1C(c1cc(Cl)cc(C(F)(F)F)c1)(C1CCC1)C(C#N)=C(N)O2 (stereo not shown) [HK-11]
IC50 (human SHMT2; Table A): 100 nM
IC50 (human SHMT2; table of Example 6): 100 nM

Compound: Cc1n[nH]c2c1C(c1cc(C(F)(F)F)cc(C(F)(F)F)c1)(C1CCC1)C(C#N)=C(N)O2 (stereo not shown) [HK-12]
IC50 (human SHMT2; Table A): 168 nM
IC50 (human SHMT2; table of Example 6): 168 nM
IC50 (human SHMT1; Table A): 206 nM
IC50 (human SHMT1; table of Example 6): 206 nM

Compound: Cc1n[nH]c2c1C(c1cc(C(F)(F)F)cc(C(F)(F)F)c1)(C(C)C)C(C#N)=C(N)O2 (stereo not shown) [HK-16 (PK-2)]
anti-SHMT2 activity of resolved enantiomers of HK-16 (human SHMT2; FIG. 4(a)): confined to the enantiomer represented by “Peak 2”
activity against SHMT1 in an in vitro enzyme assay (human SHMT1; FIG. 4(b)): active
rescue of growth inhibitory effects by formate (HEK293T cells; compound at 10 μM, co-culture with formate at 1 mM, FIG. 8): rescued
inhibition of cell growth (HEK293T cells; FIG. 5, 6, listed as HK-16-P2): active
inhibition of cell growth (HEK293T cells; FIG. 5, 6, listed as Peak 2): inhibited in a dose-dependent manner; also recorded: inhibited cell growth
inhibition of cell growth ([3]; FIG. 6, listed as HK-16-P2): active; also recorded: increased sensitivity to inhibition
inhibition of cell growth ([3]; FIG. 6, listed as Peak 2): inhibited cell growth
inhibition of cell growth ([4]; FIG. 6, listed as HK-16-P2): active; also recorded: increased sensitivity to inhibition
inhibition of cell growth ([4]; FIG. 6, listed as Peak 2): inhibited cell growth
inhibition of cancer cell growth ([6]; listed as HK-16 (peak 2)): more sensitive
inhibition of cancer cell growth ([6]; listed as HK-16-P2): significantly more sensitive; also recorded: inhibited growth
inhibition of cancer cell growth ([5]; listed as HK-16-P2): inhibits cancer cell growth; also recorded: inhibited growth

Compound: Cc1nn(C)c2c1C(c1cc(C(F)(F)F)cc(C(F)(F)F)c1)(C(C)C)C(C#N)=C(N)O2 (stereo not shown) [KDG-4]
IC50 (human SHMT2; table of Example 6): > 5000 nM
IC50 (human SHMT1; table of Example 6): > 5000 nM

Compound: CC(C)c1n[nH]c2c1C(c1cc(C(F)(F)F)cc(C(F)(F)F)c1)(C(C)C)C(C#N)=C(N)O2 (stereo not shown) [KDG-12]
IC50 (human SHMT2; table of Example 6): 71 nM
IC50 (human SHMT1; table of Example 6): 9.3 nM

Continued, values first:

inhibition of human MTHFD2 in enzymatic assays (human MTHFD2): do not inhibit
Compound: COc1cccc(C2(C3CCC3)C(C#N)=C(N)Oc3[nH]nc(C)c32)c1 (racemic) [HK-2]

IC50 (human SHMT2; Table A): 131 nM
IC50 (human SHMT1; Table A): 67 nM
Compound: Cc1n[nH]c2c1C(c1cc(Cl)cc(Cl)c1)(C(C)C)C(C#N)=C(N)O2 (racemic) [HK-14]

IC50 (human SHMT2; Table A): 35 nM
IC50 (human SHMT1; Table A): 20 nM
inhibition of human MTHFD2 in enzymatic assays (human MTHFD2): do not inhibit
Compound: Cc1n[nH]c2c1C(c1cc(Cl)cc(C(F)(F)F)c1)(C(C)C)C(C#N)=C(N)O2 (racemic) [HK-15]

IC50 (human SHMT2; Table A): 4580 nM
IC50 (human SHMT2; table of Example 6): 4580 nM
Compound: COc1cccc(C2(C(C)C)C(C#N)=C(N)Oc3[nH]nc(C)c32)c1 (stereo not shown) [HK-6]

IC50 (human SHMT2; Table A): 400 nM
IC50 (human SHMT2; table of Example 6): 400 nM
Compound: Cc1n[nH]c2c1C(c1cccc(Cl)c1)(C(C)C)C(C#N)=C(N)O2 (stereo not shown) [HK-7]

IC50 (human SHMT2; Table A): 500 nM
IC50 (human SHMT2; table of Example 6): 500 nM
Compound: COc1cc(Cl)cc(C2(C(C)C)C(C#N)=C(N)Oc3[nH]nc(C)c32)c1 (stereo not shown) [HK-13]

IC50 (human SHMT2; table of Example 6): > 5000 nM
IC50 (human SHMT1; table of Example 6): > 5000 nM
Compound: Cc1nn(-c2ccccc2)c2c1C(c1cc(C(F)(F)F)cc(C(F)(F)F)c1)(C(C)C)C(C#N)=C(N)O2 (stereo not shown) [KDG-5]

From patent US10646475B2, “SHMT inhibitors” (The Trustees of Princeton University, priority 2015, dated 2020)
